Results: the supplement of paper PMC10307832

Columns and labels:
Test in all cases: relative viability (nuclei count vs DMSO), 5 days (fraction); higher = more cells survive
LXF-289 = system: LXF-289
Outline: (§1)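 The day after seeding in 1536-well plates, lung cancer cell lines were treated by pin tool with a single drug, or with a fixed anchor-drug dose together with five library-drug doses (not always all listed) in √10 steps. After 5 days, a combined fix-and-stain solution (final 0.05% Triton X-100, 1% formaldehyde, 1 ug/ml Hoechst) was added. Nuclei counted on 4× images gave relative viability as treated counts over vehicle counts, reported as the median of duplicate plates.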

UMC-11 = system: UMC-11
Outline: as §1

HCC-78 = system: HCC-78
Outline: as §1

EPLC-272H = system: EPLC-272H
Outline: as §1

EMC-BAC-2 = system: EMC-BAC-2
Outline: as §1

NCI-H1975 = system: NCI-H1975
Outline: as §1

NCI-H2085 = system: NCI-H2085
Outline: as §1

ChaGo-K-1 = system: ChaGo-K-1
Outline: as §1

NCI-H1915 = system: NCI-H1915
Outline: as §1

NCI-H3122 = system: NCI-H3122
Outline: as §1

NCI-H322M = system: NCI-H322M
Outline: as §1

NCI-H2023 = system: NCI-H2023
Outline: as §1

HCC-15 = system: HCC-15
Outline: as §1

HOP-62 = system: HOP-62
Outline: as §1

NCI-H1666 = system: NCI-H1666
Outline: as §1

NCI-H358 = system: NCI-H358
Outline: as §1

NCI-H441 = system: NCI-H441
Outline: as §1

COR-L 105 = system: COR-L 105
Outline: as §1

CAL-12T = system: CAL-12T
Outline: as §1

NCI-H1755 = system: NCI-H1755
Outline: as §1

NCI-H2126 = system: NCI-H2126
Outline: as §1

ABC-1 = system: ABC-1
Outline: as §1

With CC(=O)O[C@@]12CO[C@@H]1C[C@H](O)[C@@]1(C)C(=O)[C@H](O)C3=C(C)[C@@H](OC(=O)[C@H](O)[C@@H](NC(=O)OC(C)(C)C)c4ccccc4)C[C@@](O)([C@@H](OC(=O)c4ccccc4)[C@H]21)C3(C)C [Docetaxel] + O=C(c1cc(Cc2n[nH]c(=O)c3ccccc23)ccc1F)N1CCN(C(=O)C2CC2)CC1 [Olaparib] (partner 8 µM) the relative viability (LXF-289; first compound 0.0002 µM) was 1.06, the relative viability (LXF-289; first compound 0.000632 µM) was 0.393 and the relative viability (LXF-289; first compound 0.002 µM) was 0.195. It also gave a relative viability (LXF-289; first compound 0.006325 µM) of 0.111, a relative viability (LXF-289; first compound 0.02 µM) of 0.0839 and a relative viability (UMC-11; first compound 0.0002 µM) of 0.371. The relative viability (UMC-11; first compound 0.000632 µM) was 0.352, the relative viability (UMC-11; first compound 0.002 µM) was 0.221 and the relative viability (UMC-11; first compound 0.006325 µM) was 0.289. It also gave a relative viability (UMC-11; first compound 0.02 µM) of 0.229, a relative viability (HCC-78; first compound 0.0002 µM) of 0.859 and a relative viability (HCC-78; first compound 0.000632 µM) of 0.777. The relative viability (HCC-78; first compound 0.002 µM) was 0.41, the relative viability (HCC-78; first compound 0.006325 µM) was 0.329 and the relative viability (HCC-78; first compound 0.02 µM) was 0.338. For the same molecule, the relative viability (EPLC-272H; first compound 0.0002 µM) was 0.527, the relative viability (EPLC-272H; first compound 0.000632 µM) was 0.339 and the relative viability (EPLC-272H; first compound 0.002 µM) was 0.0991. It also gave a relative viability (EPLC-272H; first compound 0.006325 µM) of 0.0687, a relative viability (EPLC-272H; first compound 0.02 µM) of 0.0452 and a relative viability (EMC-BAC-2; first compound 0.0002 µM) of 0.492. For the same molecule, the relative viability (EMC-BAC-2; first compound 0.000632 µM) was 0.47, the relative viability (EMC-BAC-2; first compound 0.002 µM) was 0.364 and the relative viability (EMC-BAC-2; first compound 0.006325 µM) was 0.318. For the same molecule, the relative viability (EMC-BAC-2; first compound 0.02 µM) was 0.237, the relative viability (NCI-H1975; first compound 0.0002 µM) was 0.748 and the relative viability (NCI-H1975; first compound 0.000632 µM) was 0.448. For the same molecule, the relative viability (NCI-H1975; first compound 0.002 µM) was 0.239, the relative viability (NCI-H1975; first compound 0.006325 µM) was 0.187 and the relative viability (NCI-H1975; first compound 0.02 µM) was 0.147. For the same molecule, the relative viability (NCI-H2085; first compound 0.0002 µM) was 0.725, the relative viability (NCI-H2085; first compound 0.000632 µM) was 0.826 and the relative viability (NCI-H2085; first compound 0.002 µM) was 0.747. It also gave a relative viability (NCI-H2085; first compound 0.006325 µM) of 0.431, a relative viability (NCI-H2085; first compound 0.02 µM) of 0.298 and a relative viability (ChaGo-K-1; first compound 0.0002 µM) of 0.384. It also gave a relative viability (ChaGo-K-1; first compound 0.000632 µM) of 0.335, a relative viability (ChaGo-K-1; first compound 0.002 µM) of 0.285 and a relative viability (ChaGo-K-1; first compound 0.006325 µM) of 0.3. The relative viability (ChaGo-K-1; first compound 0.02 µM) was 0.181, the relative viability (NCI-H1915; first compound 0.0002 µM) was 0.278 and the relative viability (NCI-H1915; first compound 0.000632 µM) was 0.256. For the same molecule, the relative viability (NCI-H1915; first compound 0.002 µM) was 0.179, the relative viability (NCI-H1915; first compound 0.006325 µM) was 0.144 and the relative viability (NCI-H1915; first compound 0.02 µM) was 0.0963. For the same molecule, the relative viability (NCI-H3122; first compound 0.0002 µM) was 0.658, the relative viability (NCI-H3122; first compound 0.000632 µM) was 0.623 and the relative viability (NCI-H3122; first compound 0.002 µM) was 0.521. It also gave a relative viability (NCI-H3122; first compound 0.006325 µM) of 0.202, a relative viability (NCI-H3122; first compound 0.02 µM) of 0.129 and a relative viability (NCI-H322M; first compound 0.0002 µM) of 0.777. For the same molecule, the relative viability (NCI-H322M; first compound 0.000632 µM) was 0.797, the relative viability (NCI-H322M; first compound 0.002 µM) was 0.721 and the relative viability (NCI-H322M; first compound 0.006325 µM) was 0.679. The relative viability (NCI-H322M; first compound 0.02 µM) was 0.525, the relative viability (NCI-H2023; first compound 0.0002 µM) was 0.437 and the relative viability (NCI-H2023; first compound 0.000632 µM) was 0.313. It also gave a relative viability (NCI-H2023; first compound 0.002 µM) of 0.114, a relative viability (NCI-H2023; first compound 0.006325 µM) of 0.114 and a relative viability (NCI-H2023; first compound 0.02 µM) of 0.0533. For the same molecule, the relative viability (HCC-15; first compound 0.0002 µM) was 0.72, the relative viability (HCC-15; first compound 0.000632 µM) was 0.382 and the relative viability (HCC-15; first compound 0.002 µM) was 0.281. It also gave a relative viability (HCC-15; first compound 0.02 µM) of 0.175, a relative viability (HOP-62; first compound 0.0002 µM) of 0.336 and a relative viability (HOP-62; first compound 0.000632 µM) of 0.317. It also gave a relative viability (HOP-62; first compound 0.002 µM) of 0.129, a relative viability (HOP-62; first compound 0.02 µM) of 0.12 and a relative viability (NCI-H1666; first compound 0.0002 µM) of 0.786. For the same molecule, the relative viability (NCI-H1666; first compound 0.000632 µM) was 0.673, the relative viability (NCI-H1666; first compound 0.002 µM) was 0.721 and the relative viability (NCI-H1666; first compound 0.006325 µM) was 0.703. The relative viability (NCI-H1666; first compound 0.02 µM) was 0.573, the relative viability (NCI-H358; first compound 0.0002 µM) was 0.551 and the relative viability (NCI-H358; first compound 0.000632 µM) was 0.251. For the same molecule, the relative viability (NCI-H358; first compound 0.002 µM) was 0.136, the relative viability (NCI-H358; first compound 0.006325 µM) was 0.147 and the relative viability (NCI-H358; first compound 0.02 µM) was 0.095. It also gave a relative viability (NCI-H441; first compound 0.0002 µM) of 0.446, a relative viability (NCI-H441; first compound 0.000632 µM) of 0.324 and a relative viability (NCI-H441; first compound 0.002 µM) of 0.223. The relative viability (NCI-H441; first compound 0.006325 µM) was 0.158, the relative viability (NCI-H441; first compound 0.02 µM) was 0.161 and the relative viability (COR-L 105; first compound 0.0002 µM) was 0.8. The relative viability (COR-L 105; first compound 0.000632 µM) was 0.591, the relative viability (COR-L 105; first compound 0.002 µM) was 0.461 and the relative viability (COR-L 105; first compound 0.006325 µM) was 0.539. It also gave a relative viability (COR-L 105; first compound 0.02 µM) of 0.331, a relative viability (CAL-12T; first compound 0.0002 µM) of 0.591 and a relative viability (CAL-12T; first compound 0.000632 µM) of 0.392. For the same molecule, the relative viability (CAL-12T; first compound 0.002 µM) was 0.253, the relative viability (CAL-12T; first compound 0.006325 µM) was 0.263 and the relative viability (CAL-12T; first compound 0.02 µM) was 0.173. It also gave a relative viability (NCI-H1755; first compound 0.0002 µM) of 0.87, a relative viability (NCI-H1755; first compound 0.000632 µM) of 0.729 and a relative viability (NCI-H1755; first compound 0.002 µM) of 0.578. For the same molecule, the relative viability (NCI-H1755; first compound 0.006325 µM) was 0.417, the relative viability (NCI-H1755; first compound 0.02 µM) was 0.377 and the relative viability (NCI-H2126; first compound 0.0002 µM) was 0.887. The relative viability (NCI-H2126; first compound 0.000632 µM) was 0.861, the relative viability (NCI-H2126; first compound 0.002 µM) was 0.615 and the relative viability (NCI-H2126; first compound 0.006325 µM) was 0.348. The relative viability (ABC-1; first compound 0.0002 µM) was 0.649, the relative viability (ABC-1; first compound 0.000632 µM) was 0.827 and the relative viability (ABC-1; first compound 0.002 µM) was 0.564. The relative viability (ABC-1; first compound 0.006325 µM) was 0.535 and the relative viability (ABC-1; first compound 0.02 µM) was 0.338.
